From patent US5863936A, “Telomerase inhibitors” (Geron Corporation, priority 1995, dated 1999)
pIC50: −log10 of the molar value. Where “and” joins values, the source holds several entries; their conditions need not be identical. Equal entries are not always repeated. Where two headings read alike, the source gives them in different places.

Target: T1, telomerase (Homo sapiens, UniProt O14746)
T1 construct: cells, tissues, or preferably a cellular extract or other preparation containing telomerase; endogenous in cells
T1 sequence (O14746 whole entry): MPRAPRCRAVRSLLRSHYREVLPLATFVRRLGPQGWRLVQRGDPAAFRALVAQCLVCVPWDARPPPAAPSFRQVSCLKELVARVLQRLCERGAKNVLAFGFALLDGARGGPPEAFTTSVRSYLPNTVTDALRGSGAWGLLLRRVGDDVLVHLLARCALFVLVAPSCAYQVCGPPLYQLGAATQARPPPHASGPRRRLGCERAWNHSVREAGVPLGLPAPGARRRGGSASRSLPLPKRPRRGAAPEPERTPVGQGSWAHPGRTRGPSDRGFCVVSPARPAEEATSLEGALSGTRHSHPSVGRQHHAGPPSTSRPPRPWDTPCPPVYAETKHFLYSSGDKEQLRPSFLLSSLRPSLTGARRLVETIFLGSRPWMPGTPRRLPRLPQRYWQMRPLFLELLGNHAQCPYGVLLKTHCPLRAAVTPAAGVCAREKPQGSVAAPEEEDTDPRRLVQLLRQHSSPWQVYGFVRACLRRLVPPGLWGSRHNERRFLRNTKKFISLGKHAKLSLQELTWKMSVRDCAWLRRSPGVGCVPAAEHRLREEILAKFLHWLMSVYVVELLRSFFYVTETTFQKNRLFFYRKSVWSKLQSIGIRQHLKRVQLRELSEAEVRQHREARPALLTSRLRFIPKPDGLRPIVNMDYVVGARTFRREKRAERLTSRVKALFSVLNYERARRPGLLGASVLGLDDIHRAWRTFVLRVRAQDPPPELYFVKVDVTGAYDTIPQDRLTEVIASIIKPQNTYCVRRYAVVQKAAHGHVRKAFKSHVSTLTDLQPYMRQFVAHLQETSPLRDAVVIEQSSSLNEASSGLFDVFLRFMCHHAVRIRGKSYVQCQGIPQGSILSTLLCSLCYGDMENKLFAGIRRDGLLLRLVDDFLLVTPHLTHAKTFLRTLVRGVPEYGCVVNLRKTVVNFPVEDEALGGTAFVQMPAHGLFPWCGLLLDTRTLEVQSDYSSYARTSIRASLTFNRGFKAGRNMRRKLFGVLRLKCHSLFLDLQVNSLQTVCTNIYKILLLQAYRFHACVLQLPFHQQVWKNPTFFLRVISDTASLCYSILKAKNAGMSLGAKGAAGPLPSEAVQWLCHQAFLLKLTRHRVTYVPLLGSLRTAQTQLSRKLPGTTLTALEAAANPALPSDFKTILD
T1 sequence (O60832 whole entry partner): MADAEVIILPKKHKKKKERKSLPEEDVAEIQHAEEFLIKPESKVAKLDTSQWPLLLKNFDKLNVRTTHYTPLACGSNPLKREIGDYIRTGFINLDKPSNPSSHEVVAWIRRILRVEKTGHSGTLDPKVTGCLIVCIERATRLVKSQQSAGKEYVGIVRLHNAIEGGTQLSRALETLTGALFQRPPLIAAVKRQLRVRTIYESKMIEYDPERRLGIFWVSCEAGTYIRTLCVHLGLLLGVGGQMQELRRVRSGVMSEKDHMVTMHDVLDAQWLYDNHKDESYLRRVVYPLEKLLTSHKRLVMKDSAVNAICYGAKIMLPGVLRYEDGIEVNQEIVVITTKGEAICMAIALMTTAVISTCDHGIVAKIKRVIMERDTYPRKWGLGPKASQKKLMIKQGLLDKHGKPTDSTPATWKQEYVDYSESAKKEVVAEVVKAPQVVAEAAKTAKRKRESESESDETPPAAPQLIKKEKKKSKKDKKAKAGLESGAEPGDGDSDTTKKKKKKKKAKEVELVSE
T1 sequence (Q9NPE3 whole entry partner): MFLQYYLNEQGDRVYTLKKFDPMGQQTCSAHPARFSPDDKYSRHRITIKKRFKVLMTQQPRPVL
T1 sequence (Q9NX24 whole entry partner): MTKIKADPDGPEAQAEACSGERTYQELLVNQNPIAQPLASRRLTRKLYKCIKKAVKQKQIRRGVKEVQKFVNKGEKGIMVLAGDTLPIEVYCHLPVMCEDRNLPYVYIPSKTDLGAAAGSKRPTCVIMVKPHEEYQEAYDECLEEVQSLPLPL
T1 sequence (Q9NY12 whole entry partner): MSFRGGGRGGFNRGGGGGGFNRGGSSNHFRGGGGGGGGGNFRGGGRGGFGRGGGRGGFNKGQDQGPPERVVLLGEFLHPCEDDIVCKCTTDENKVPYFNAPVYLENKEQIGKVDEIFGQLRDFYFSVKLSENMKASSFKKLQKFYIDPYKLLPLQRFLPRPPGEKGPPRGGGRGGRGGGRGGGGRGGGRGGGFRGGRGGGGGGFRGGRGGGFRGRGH
Assay: Telomerase inhibition (IC50) with cellular extract or other preparation containing telomerase
Type: biochemical
From the text: One method used to identify compounds of the invention that inhibit telomerase activity involves placing cells, tissues, or preferably a cellular extract or other preparation containing telomerase in contact with several known concentrations of a test compound in a buffer compatible with telomerase activity. […] Other methods for determining the inhibitory concentration of a compound of the invention against telomerase can be employed as will be apparent to those of skill in the art based on the disclosure herein.
With the above-described methods, IC50 values for several of the compounds of the present invention were determined. The values reported in Table 1 below are only approximate values; more exact IC50 values can be obtained by repetitive testing.

[1] = approximate values, read-out: IC50

pIC50 [1]	anti-telomerase activity (in words)	SMILES	pIC50 (IC50, approximate values)
5.00	–	O=C(NNC(=S)Nc1cc(Cl)ccc1Cl)c1cc2ccccc2s1 [Compound VII]	–
5.05	–	Cc1ccc(Sc2ccccc2NC(=S)NNC(=O)c2cc3c(Cl)cccc3s2)cc1 [Compound XV]	–
5.10	–	O=C(NNC(=S)Nc1cc(Cl)c(Cl)cc1Cl)c1sc2cc(-c3ccccc3)ccc2c1Cl [Compound XXIV]	–
5.15	–	O=C(NNC(=S)Nc1cc(Cl)c(Cl)c(Cl)c1Cl)c1cc2c(Cl)cccc2s1 [Compound XII]	–
5.30 and ≥ 5.30	–	O=C(NNC(=S)Nc1cc(Cl)c(Cl)c(Cl)c1Cl)c1sc2ccc(Cl)c(Cl)c2c1Cl [Compound XXX]	–
5.05	–	O=C(NNC(=S)Nc1ccc(Cl)c(Cl)c1Cl)c1cc2c(Cl)cccc2s1 [Compound XIV]	–
5.10	–	O=C(NNC(=S)Nc1cc(C(F)(F)F)cc(C(F)(F)F)c1)c1sc2ccc(Cl)c(Cl)c2c1Cl [Compound XXXVI]	–
5.30 and ≥ 5.30	–	O=C(NNC(=S)Nc1cccc(Cl)c1Cl)c1sc2ccc(Cl)c(Cl)c2c1Cl [Compound XXXI]	–
5.22	–	O=C(NNC(=S)Nc1cc(Cl)ccc1Cl)c1sc2cc(-c3ccccc3)ccc2c1Cl [Compound XXVII]	–
5.10	useful anti-telomerase properties	O=C(NNC(=S)Nc1cc(Cl)c(Cl)c(Cl)c1Cl)c1sc2ccccc2c1Cl [Compound XIX]	–
5.22	–	O=C(NNC(=S)Nc1ccc(Cl)c(Cl)c1Cl)c1sc2ccc(Cl)c(Cl)c2c1Cl [Compound XXXIV]	–
5.10	–	O=C(NNC(=S)Nc1ccc(Cl)cc1)c1sc2ccc(Cl)c(Cl)c2c1Cl [Compound XLI]	–
5.00	–	O=C(NNC(=S)Nc1cc(Cl)c(Cl)c(Cl)c1Cl)c1sc2cc(-c3ccccc3)ccc2c1Cl [Compound XXV]	–
5.15	–	O=C(NNC(=S)Nc1ccc(Cl)cc1Cl)c1sc2ccc(Cl)c(Cl)c2c1Cl [Compound XXXII]	–
4.82	–	COc1ccc2c(Cl)c(C(=O)NNC(=S)Nc3cc(Cl)c(Cl)c(Cl)c3Cl)sc2c1Cl [Compound XVIII]	–
5.15	–	O=C(NNC(=S)Nc1c(Cl)cc(Cl)cc1Cl)c1sc2cc(-c3ccccc3)ccc2c1Cl [Compound XXIX]	–
5.30 and ≥ 5.30	–	O=C(NNC(=S)Nc1cc(Cl)c(Cl)cc1Cl)c1sc2ccc(Cl)c(Cl)c2c1Cl [Compound XXXIX]	–
5.22	good anti-telomerase activity	Cc1ccc(NC(=S)Nc2ccc3sc(C(=O)NNC(=S)Nc4cc(Cl)ccc4Cl)cc3c2)cc1 [Compound II]	–
5.05	useful telomerase-inhibiting properties	COc1ccc2c(Cl)c(C(=O)NNC(=S)Nc3cc(Cl)c(Cl)cc3Cl)sc2c1 [Compound XX]	–
5.30 and ≥ 5.30	–	O=C(NNC(=S)Nc1ccc2ccccc2c1)c1sc2ccc(Cl)c(Cl)c2c1Cl [Compound XXXVIII]	–

pIC50 [1]	anti-telomerase activity (in words)	SMILES	pIC50 (IC50, approximate values)
4.63	useful telomerase-inhibiting properties	Cc1cccc(NC(=S)Nc2ccc3sc(C(=O)NNC(=S)Nc4cc(C(F)(F)F)cc(C(F)(F)F)c4)cc3c2)c1 [Compound IV]	–
4.92	useful telomerase-inhibiting properties	Cc1ccc(Sc2ccccc2NC(=S)NNC(=O)c2cc3cc(NC(=S)Nc4ccccc4Sc4ccc(C)cc4)ccc3s2)cc1 [Compound III]	–
5.30 and ≥ 5.30	–	O=C(NNC(=S)Nc1cc(Cl)c(Cl)c(Cl)c1Cl)c1cc2cccc(F)c2s1 [IX]	–
5.22	–	O=C(NNC(=S)Nc1ccc(Sc2ccc([N+](=O)[O-])cc2)cc1)c1cc2c(F)cccc2s1 [Compound XVI]	–
–	–	O=C(NNC(=S)Nc1cc(Cl)c(Cl)cc1Cl)c1cc2cccc(F)c2s1 [VIII]	5.15
5.10	useful telomerase-inhibiting properties	COc1ccc2c(Cl)c(C(=O)NNC(=S)Nc3ccc(Cl)c(Cl)c3Cl)sc2c1 [Compound XXII]	–
5.22	–	Cc1ccc(Sc2ccccc2NC(=S)NNC(=O)c2cc3cccc(F)c3s2)cc1 [Compound X]	–
5.05	–	O=C(NNC(=S)Nc1cc(Br)ccc1Br)c1sc2cc(-c3ccccc3)ccc2c1Cl [Compound XXVIII]	–
5.05	–	COc1ccc2c(Cl)c(C(=O)NNC(=S)Nc3cc(Cl)c(Cl)cc3Cl)sc2c1Cl [Compound XVII]	–
5.15	–	O=C(NNC(=S)Nc1cc(Cl)ccc1Cl)c1sc2ccc(Cl)c(Cl)c2c1Cl [Compound XXXIII]	–
5.22	–	O=C(NNC(=S)Nc1cc(Br)ccc1Br)c1sc2ccc(Cl)c(Cl)c2c1Cl [Compound XXXV]	–
5.05	–	O=C(NNC(=S)Nc1cc(Br)ccc1Br)c1cc2c(Cl)cccc2s1 [Compound XIII]	–
5.00	–	O=C(NNC(=S)Nc1cc(Cl)c(Cl)cc1Cl)c1cc2c(Cl)cccc2s1 [Compound XI]	–
5.22	–	O=C(NNC(=S)Nc1cccc(Cl)c1Cl)c1sc2cc(-c3ccccc3)ccc2c1Cl [Compound XXVI]	–
5.01	useful telomerase-inhibiting properties	Cc1ccc(Sc2ccccc2NC(=S)NNC(=O)c2cc3cc(NC(=S)Nc4cccc(C)c4)ccc3s2)cc1 [Compound V]	–
4.85	–	O=C(NNC(=S)Nc1c(Cl)cc(Cl)cc1Cl)c1sc2ccc(Cl)c(Cl)c2c1Cl [Compound XL]	–
5.19	useful telomerase-inhibiting properties	CSc1ccc(NC(=S)NNC(=O)c2cc3cc(NC(=S)Nc4cccc(C)c4)ccc3s2)cc1 [Compound VI]	–
5.00	–	Cc1ccc2c(Cl)c(C(=O)NNC(=S)Nc3cccc(Cl)c3Cl)sc2c1 [Compound XXIII]	–
5.30	useful telomerase-inhibiting properties	COc1ccc2c(Cl)c(C(=O)NNC(=S)Nc3cc(Cl)c(Cl)c(Cl)c3Cl)sc2c1 [Compound XXI]	–
5.15	–	Cc1ccc(Sc2ccccc2NC(=S)NNC(=O)c2sc3ccc(Cl)c(Cl)c3c2Cl)cc1 [Compound XXXVII]	–
